The test system of assay [1] is db/db diabetic mice. Put plainly: Effect on body weight, total cholesterol, plasma glucose and triglyceride levels of db/db diabetic mice. The format is in vivo. The source says:
Effect of Compound I on Body Weight Total Cholesterol, Plasma Glucose, and Triglyceride Levels of db/db Diabetic Mice
It is well-known that there is an increase of serum lipid concentration in people with diabetes.
db/db mouse is a genetic obesity diabetic animal model produced with the aid of the shortage of leptin receptor. The pathogenesis features of T2DM in db/db mice was similar to those in human type 2 diabetes, including hyperglycemia, obesity, and insulin resistance. Current years, db/db mice have been broadly used in animal experiments to set up the T2DM model. We have investigated whether Compound I include IR activators with insulin-mimetic and insulin-sensitizing activity by means of evaluating their effects on IR signaling. Compound I (100 mg/kg and 200 mg/kg b.wt) treatment for 7 days reduced food consumption and body weight in the db/db mice, an inherited obese animal model (FIG. 5, a-d). […] Based on these findings, further studies on Compound I have been carried out in the subsequent experiments to explore their inhibitory activity against PTP1B.

Another assay deals with T1, p-IRβ (Mus musculus, UniProt P15208).
T1 construct: from tissue; host or cells: skeletal muscle and liver of db/db mice
T1 sequence (P15208 753-1372 limits assumed): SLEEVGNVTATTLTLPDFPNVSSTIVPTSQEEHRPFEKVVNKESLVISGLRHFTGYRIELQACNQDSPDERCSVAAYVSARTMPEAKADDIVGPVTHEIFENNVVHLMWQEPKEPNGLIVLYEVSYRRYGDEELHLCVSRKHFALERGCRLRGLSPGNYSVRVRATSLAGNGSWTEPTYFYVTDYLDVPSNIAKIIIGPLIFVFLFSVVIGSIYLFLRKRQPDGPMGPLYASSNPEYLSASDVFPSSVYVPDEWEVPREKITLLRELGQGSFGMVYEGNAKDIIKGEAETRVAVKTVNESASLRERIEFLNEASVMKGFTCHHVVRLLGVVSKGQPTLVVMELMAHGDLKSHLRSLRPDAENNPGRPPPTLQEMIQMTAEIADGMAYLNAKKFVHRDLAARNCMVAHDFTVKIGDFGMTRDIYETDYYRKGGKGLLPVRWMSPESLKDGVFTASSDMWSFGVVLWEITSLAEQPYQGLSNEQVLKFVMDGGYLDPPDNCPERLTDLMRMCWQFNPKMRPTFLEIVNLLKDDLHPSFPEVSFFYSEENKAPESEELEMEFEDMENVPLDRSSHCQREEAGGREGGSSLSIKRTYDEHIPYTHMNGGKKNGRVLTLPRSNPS
T1 sequence (P15208 28-748 partner limits assumed): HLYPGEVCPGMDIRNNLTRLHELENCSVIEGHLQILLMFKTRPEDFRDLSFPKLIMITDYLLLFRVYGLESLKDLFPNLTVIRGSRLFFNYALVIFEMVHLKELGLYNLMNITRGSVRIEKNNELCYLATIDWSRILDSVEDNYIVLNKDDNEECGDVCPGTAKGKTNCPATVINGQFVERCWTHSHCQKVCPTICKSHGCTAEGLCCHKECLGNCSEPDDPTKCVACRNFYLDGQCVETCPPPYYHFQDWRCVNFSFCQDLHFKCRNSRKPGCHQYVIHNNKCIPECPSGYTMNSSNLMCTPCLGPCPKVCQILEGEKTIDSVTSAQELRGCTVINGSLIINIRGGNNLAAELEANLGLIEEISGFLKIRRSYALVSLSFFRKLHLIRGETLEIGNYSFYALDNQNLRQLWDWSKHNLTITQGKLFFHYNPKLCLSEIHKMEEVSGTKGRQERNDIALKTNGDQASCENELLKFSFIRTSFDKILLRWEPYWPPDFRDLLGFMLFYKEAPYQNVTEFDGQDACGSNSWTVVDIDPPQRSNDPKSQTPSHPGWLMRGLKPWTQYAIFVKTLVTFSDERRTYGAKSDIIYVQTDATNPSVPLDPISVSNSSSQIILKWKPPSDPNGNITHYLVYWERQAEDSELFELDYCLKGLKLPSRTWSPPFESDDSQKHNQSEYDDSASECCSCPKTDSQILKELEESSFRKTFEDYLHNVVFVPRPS
Put plainly: Insulin mimicking effect in skeletal muscle and liver of db/db mice, Western blot and PCR: p-IRβ. The class given is in vivo. As to conditions: vs non-treated control group. As for the experimental part: (§1) Insulin Mimicking Effect of COMPOUND I in Skeletal Muscle and Liver of db/db Mice
(§2) To further utilize the insulin mimetic effect of Compound I, the key proteins in PTP1B and PI3K/Akt signaling pathway were evaluated using Western blot and PCR after treatment with Compound I. Western blotting and PCR analysis have been carried out to verify the expression of PTP1B and IR β in skeletal muscle and liver to establish the inhibition effect of Compound I towards PTP1B.
On the technique in general: Immunoblotting shows a protein as a band on a membrane.

Assay [2] deals with PTP1B. Put plainly: Insulin mimicking effect in skeletal muscle and liver of db/db mice, Western blot and PCR: PTP1B. Conditions: vs control group, p<0.01. The class given is in vivo. As for the experimental part:
as §1, §2

For assay [3], the system named is IRS-1, IRS-2, PI3K, Glut4 and Akt. Put plainly: Expression of diabetic-associated gene transcripts in streptozotocin-induced diabetic mice, semiquantitative RT-PCR. The class given is in vivo. As for the experimental part: One of the mechanisms which can stimulate or enhance glucose uptake in cells is the elevated translocation of glucose transporter 4 (GLUT 4) from the intracellular site to the plasma membrane. […] The expression of diabetic-related, gluconeogenic and glycolytic genes, in streptozotocin-induced diabetic mice, were treated with Compound I was determined using semiquantitative RT-PCR. As the internal control, GAPDH the band density of each target gene normalized to the band density of GAPDH of the sample.

A further assay relates to inflammatory parameters. The assay is described as follows: Inflammatory mediators in HFD+STZ type II diabetic mice. The format is in vivo. The source says: FIG. 7 depicts the Insulin mimicking effect of compound I in Liver and skeletal muscle of HFD+STZ type II diabetic mice • a. Insulin Mimetic Effect • b. Inflammatory mediators
(§3) In the insulin signaling pathway, protein tyrosine phosphatase 1B (PTP1B) considered playing a vital role in the intracellular signal transduction process and metabolism. There is compelling confirmation that PTP1B, is principally responsible for the dephosphorylation of insulin receptor (IR-β), as a result, leading to the block of insulin signaling transduction pathway. […] (FIG. 7, a & b)

For the next assay, the system named is PI3K, GLUT4. Put plainly: PI3K and GLUT4 gene expression in diabetic mice (discussion). The format is in vivo. From the text: Next, we examine the effect of COMPOUND Ion PTP-1B inhibition and activation of IR-β phosphorylation by PCR and Western blotting studies. In the current study, we used the type 2 diabetic C57BL/6J STZ, HFD+STZ C57BL/6J, db/db mouse model to assess the antihyperglycemic property. […] As shown in FIGS. 6&8, There is a diminish in the tyrosine phosphorylation levels of the IR β- in the skeletal muscle and liver of diabetic mice, involving the PTP1B function in all the diabetic-treated mice. According to Tagami et al. expression of PTP1B activity up regulated in the skeletal muscle and adipose tissue of Otsuka Long-Evans Tokush-in fat rats. Haj et al. established that the hepatic-specific over expression of PTP1B confirmed insulin resistance no longer merely in the liver but also in other tissues in PTP1B knockout mice. For that reason, PTP1B plays a main function in diabetic mice. When PTP1B gets activated, the insulin signaling transduction pathway blocked, and the level of plasma glucose is disturbed, ensuing in the increased plasma glucose level. […] The increased in the tyrosine phosphorylation expression level of the IR β-subunit in the skeletal muscle and liver of Compound I treated diabetic mice point out the enhancement of insulin sensitivity in the entire animal model tested. […]

The test system of another assay is p-IRβ, IR. The assay is described as follows: Phosphorylated insulin-signaling molecules in muscles and liver of diabetic mice (discussion). The format is in vivo. Conditions: oral administration, dose-dependent. From the text: Next, we examine the effect of COMPOUND Ion PTP-1B inhibition and activation of IR-β phosphorylation by PCR and Western blotting studies. In the current study, we used the type 2 diabetic C57BL/6J STZ, HFD+STZ C57BL/6J, db/db mouse model to assess the antihyperglycemic property. […] As shown in FIGS. 6&8, There is a diminish in the tyrosine phosphorylation levels of the IR β- in the skeletal muscle and liver of diabetic mice, involving the PTP1B function in all the diabetic-treated mice. According to Tagami et al. expression of PTP1B activity up regulated in the skeletal muscle and adipose tissue of Otsuka Long-Evans Tokush-in fat rats. Haj et al. established that the hepatic-specific over expression of PTP1B confirmed insulin resistance no longer merely in the liver but also in other tissues in PTP1B knockout mice. For that reason, PTP1B plays a main function in diabetic mice. When PTP1B gets activated, the insulin signaling transduction pathway blocked, and the level of plasma glucose is disturbed, ensuing in the increased plasma glucose level. […] The increased in the tyrosine phosphorylation expression level of the IR β-subunit in the skeletal muscle and liver of Compound I treated diabetic mice point out the enhancement of insulin sensitivity in the entire animal model tested.

The subject of a further assay is insulin receptor (IR-β). The assay is described as follows: Insulin mimicking effect in liver and skeletal muscle of HFD+STZ mice, PCR analysis: IR-β. The format is in vivo. Conditions: dose-dependent.
From the text: (§4) Insulin Mimicking Effect of Compound I in Liver and Skeletal Muscle of HFD+STZ Type II Diabetic Mice
as §3

The test system of assay [4] is HFD+STZ type II diabetic mice. The assay is described as follows: Effect on body weight, plasma glucose, total cholesterol and triglyceride levels of HFD+STZ type II diabetic mice. The class given is in vivo, C57BL/6J mice. From the text: Effect of Compound I on body weight, Total cholesterol, Plasma glucose, and triglyceride levels of HFD+STZ type II diabetic mice:
Eight weeks of dietary manipulation with high-fat diet increased the body weight in all the groups when compared to NPD group.
Type 2 diabetes mellitus and its related complications have arisen as serious health problems in modern societies. The cutting edge technology of drug development is to identify small molecule drugs helpful in controlling both diabetes and obesity. In this study, we assess the impact of a small molecule Compound I having insulin mimicking effect by inhibiting PTP-1B and activating IR-β phosphorylation in insulin-sensitive tissues by in vivo animal model. […] The induction of diabetes mellitus in mice confirmed by elevated levels of fasting plasma glucose. Plasma glucose level measured in normal and experimental mice.

Assay [5] concerns db/db diabetic mice. Put plainly: Effect on body weight, total cholesterol, plasma glucose and triglyceride levels of db/db diabetic mice. Conditions: 100 and 200 mg/kg b.wt, 2 weeks, vs control mice. The format is in vivo.
The test system of assay [6] is IRS-1, IRS-2, PI3K, Glut4, Akt. The assay is described as follows: Liver insulin resistance in C57BL/6J-db/db mice: expression of insulin signaling genes. The format is in vivo. As to conditions: vs C57BL/6J-db/db control group, p<0.05. From the text: Effect of Compound I on Liver Insulin Resistance in the C57BL/6J-db/Dbmice
The expression of insulin signaling genes such as IRS-1, IRS-2, PI3K, Glut4, Akt in the livers of the db/db mice reduced noticeably when compared with that of the normal mice. There was a significant enhance within the activation of all the examined genes in the C57BL/6J-db/db treatment group compared to that of normal control group FIG. 8.

Assay [7] relates to PTP1B. The assay is described as follows: Insulin mimicking effect in liver and skeletal muscle of HFD+STZ mice, PCR analysis: PTP1B. The class given is in vivo. Conditions: dose-dependent, p<0.05.
From the text: as §4, §3

Setting [8] is: 100 and 200 mg/kg b.wt, treatment for 7 days.
[9] abbreviates: 7 days after treatment, vs control mice.
[10] abbreviates: Compound I, dose-dependent, high dose better (P<0.05).
The mark [11] stands for this setting: 14 days after treatment, dose-dependent, vs control mice.
Where [12] appears, read: C57BL/6J mice fed high-fat diets, 7 days after injection, vs control mice.
[13] abbreviates: low and high doses (100 and 200 mg/kg), vs diabetic group.
Where [14] appears, read: metformin-treated group vs model group.
The mark [15] stands for this setting: Metformin 250 mg/kg b.wt, vs diabetic group.

Structures are written as SMILES. Entries after “also recorded” stand apart in the source; their conditions may differ.

Regarding `COc1cc(CO)cc2c1[nH]c1c(/C(C)=C/C(=O)O)cccc12` [Compound I, (2E)-3-[6-(hydroxymethyl)-8-methoxy-9H carbazol-1-yl]but-2-enoic acid], the “free fatty acids levels” value in the assay with db/db diabetic mice [1] (100 and 200 mg/kg b.wt, 7 days, vs normal control) is “reduced”. In the assay on db/db diabetic mice [1] (setting [8]), the body weight entry was “reduced” and the food consumption entry was “reduced”. In the assay on db/db diabetic mice [1] (setting [9]), the Fasting plasma glucose result is on record as “markedly lower; also recorded: reduced”, the insulin result is recorded as “markedly lower; also recorded: reduced” and the triglyceride levels result is listed as “markedly lower; also recorded: reduced”. In the assay with db/db diabetic mice [1] (setting [10]), the total cholesterol concentration entry is given as “lowered” and the triglycerides concentration entry is reported as “lowered”. In addition, the p-IRβ result on p-IRβ is recorded as “significantly increased”. Moreover, the PTP1B expression entry in the assay on PTP1B [2] was “downregulated substantially”. In assay [3] (Compound I 100 mg/kg, Liver tissue), the “expression of all the gene transcripts, fold increased expression” value is given as approximately 2.5 fold. Besides, the “expression of all the gene transcripts, fold change” value in assay [3] (Compound I 100 mg/kg, skeletal muscle) is on record as approximately 3.5 fold change. Also, the “expression of inflammatory parameters” value in the assay with inflammatory parameters is “significantly reduced”. In the assay on PI3K, GLUT4 (in contrast to diabetic mice), the “PI3K and GLUT4 expression levels” value was “enhanced significantly”. Moreover, in the assay with PI3K, GLUT4 (vs normal control group), the “GLUT4 mRNA expression” value was “extremely expressed”. Also, the “expression level of proteins (p-IRβ, IR)” value with p-IRβ, IR is recorded as “significantly augmented”. Also, the IR-β levels entry in the assay with insulin receptor (IR-β) is reported as “concomitant increase”. Moreover, in assay [4] (100 and 200 mg/kg b.wt, C57BL/6J mice fed high-fat diets for 7 days, vs control mice), the food intake entry is given as “extensively decreased”. In addition, in assay [4] (setting [11]), the Fasting plasma glucose entry is on record as “markedly diminished”, the insulin levels result is “markedly diminished; also recorded: markedly reduced” and the triglyceride levels result was “markedly diminished; also recorded: markedly reduced”. Moreover, in assay [4] (setting [12]), the “Fasting plasma glucose levels” value is recorded as “markedly diminished”, the insulin levels result is “markedly diminished” and the triglyceride levels entry is reported as “markedly diminished”. In assay [4] (C57BL/6J mice fed high-fat diets, 7 days, vs normal control mice), the body weights entry is on record as “widely dropped”. Also, the food intake entry in assay [4] (Compound I 100 mg/kg and 200 mg/kg b.wt, 14 days, C57BL/6J mice fed high-fat diets, vs control mice, p<0.001) is on record as “drastically lower”. Moreover, in [4] (Compound I 100 and 200 mg/kg b.wt, 14 days, vs control mice), the body weights result was “significantly reduce”. Also, in assay [4] (setting [13]), the “decrease in Plasma glucose levels” value is “approximately two fold”, the “decrease in triglycerides levels” value is recorded as “approximately two fold” and the “total cholesterol levels reduced” value came to 2.5 fold. Besides, the plasma glucose level entry in assay [4] (oral 100 mg/kg and 200 mg/kg b.wt, STZ-treated diabetic mice) was “highly significant effect by reducing”. For the same molecule, the body weights entry with db/db diabetic mice [5] is on record as “significantly decreased”. The food intake result with db/db diabetic mice [5] (p>0.05) is on record as “extensively lower”. For the same molecule, the “expression of all genes involved in insulin signaling pathway” value in assay [6] is listed as “notably enhanced”. Besides, the “expression of PTP1B” value in the assay on PTP1B [7] is reported as “significantly decreased”.

As for `CN(C)C(=N)N=C(N)N` [Metformin, reference compound], in the assay on db/db diabetic mice [1] (setting [14]), the “serum total cholesterol levels” value is “lower than in the model group” and the serum triglyceride levels entry is on record as “lower than in the model group”. For the same molecule, the “levels of insulin-signaling gene expression” value in [3] (Metformin-treated groups, skeletal muscle and liver tissue, p<0.05) is “increased levels”. For the same molecule, in assay [4] (setting [15]), the glucose result was “markedly reduced”, the total cholesterol entry was “markedly reduced” and the triglycerides result is given as “markedly reduced”.

Source of the values: patent publication US20260130888A1, “NOVEL THERAPEUTIC MOLECULE” (Pillai Universal LLC, priority 2022, published 2026).
